System: chPylRS
Test: aminoacylation of […]-labeled tRNA
Type: biochemical, Methanosarcina mazei; Methanosarcina barkeri
Details: read-out: KM (mM), ncAA; M. mazei tRNA(Pyl) transcript, 10 mM ATP, 10 mM MgCl2, pH 7.2, 37 °C

Compound | Km
C[C@@H]1CC=N[C@H]1C(=O)NCCCC[C@H](N)C(=O)O [compound 1, Pyl] | 0.0076 ± 0.0002 mM
CC(C)(C)OC(=O)NCCCC[C@H](N)C(=O)O [compound 12, BocK] | 2.91 ± 0.1 mM

Source: PMC5698177 (Nature chemical biology, 2017)
